Tested on: amniotic fluid-derived cell line
Test: Two sequential low dose trichostatin A treatments, gene expression by RT-PCR (Example 7)
Assay type: cell-based, human
Details: for Gata1 gene expression / HNF (HNF-3 beta) gene expression / Insulin gene expression / Pdx-1 gene expression / sox17 gene expression: 500 nM 0-24 h + 96-120 h
Experimental: Several cell lines obtained from different amniotic fluid specimens (see Example 14) and pancreas donors (see Example 13) were tested with similar results. Two lines at similar passage number but derived from different amniotic fluid specimens are shown in Table VII-A and Table VII-B for this example. One of these cell lines was also used in examples 2 and 4 above. In addition, this example also contains comparison data in Table VII-C and Table VII-D for a single pancreatic-derived stromal line grown to early and late passage number.
Amniotic fluid derived cells or pancreatic-derived stromal cells were seeded into 24-well tissue culture plates at a density of 5000/cm^2 and cultured in AMNIOMAX (Invitrogen) or DMEM with 10% FBS respectively under standard cell culture conditions until confluent. After the cells reached confluency, amniotic fluid derived cells were treated at time 0 hours with a dose of 500 nM trichostatin A, and pancreatic-derived stromal cells were treated with a dose of 1.25 μM trichostatin A solubilized in DMSO and medium. At time 24 hours, cell cultures underwent a complete medium change to remove all traces of trichostatin A. At time 96 hours, cell cultures were re-fed with fresh medium and received a second dose of trichostatin A at the same concentration as used previously. At time 120 hours, cell cultures again underwent a complete medium change and were cultured for an additional 24 hours or […] total incubation time.
Samples were taken daily for RT-PCR at the times indicated in Table VII-A to D. The culture medium was removed, and samples were rinsed in PBS then collected in RLT with β-mercaptoethanol (Qiagen). RNA was purified using the RNeasy Mini Kit (Qiagen) and RNA quantity and quality were determined using a spectrophotometer. cDNA was made using the iScript cDNA synthesis kit (BioRad).
Samples of 20 ng cDNA were used in each reaction to determine the expression levels of the following genes in amniotic fluid-derived cells: Gata1, HNF-3 beta, Pdx-1, insulin, and Sox17. Similarly, samples of 20 ng cDNA were used in each reaction to determine the expression level of the following genes in pancreatic-derived cells: glucagon, HNF-3 beta, insulin and Pdx-1. Real-Time PCR was performed on the Applied Biosystems 7500, and data was analyzed using the accompanying software according to the methods described in Example 15.
Real-time PCR amplifcation and quantitative analysis. Unless otherwise stated, all reagents were purchased from Applied Biosystems. Real-time PCR reactions were performed using the ABI PRISM™ 7500 Sequence Detection System. TAQMAN™ FAST UNIVERSAL PCR MASTER MIX™ (ABI, CA) was used with 20 ng of reverse transcribed RNA in a total reaction volume of 20 μl. Each cDNA sample was run in duplicate to allow correction of pipetting errors. Primers and FAM-labeled TAQMAN™ probes were used at concentrations of 200 nM. The level of expression for each target gene was normalized using the pre-developed Applied Biosystem's human glyceraldehyde-3-phosphate dehydrogenase (GAPDH) endogenous control kit. Primers and probes were designed using either ABI PRISM PRIMER EXPRESS™ software or a pre-developed ABI gene analysis kit. For each gene, either one of the primers or the probe were designed to be exon-boundary spanning. This eliminated the possibility of the primers/probe binding to any genomic DNA present. The primer and probe sets are listed as follows: Pdx-1 (Hs00426216), Insulin (Hs00355773), glucagon (Hs00174967), and FoxA2 (HNF 3-beta) (Hs00232764). The remaining primers were designed using the PRIMERS program (ABI, CA). After an initial 95° C. incubation for 20 sec, samples were cycled 40 times in two stages: a denaturation step at 95° C. for 3 sec, followed by an annealing/extension step at 60° C. for 30 sec. […]

In the case of `CC(/C=C/C(=O)NO)=C\[C@@H](C)C(=O)c1ccc(N(C)C)cc1` [trichostatin A], the “Insulin RT-PCR detection cycle” value (0.5 μM, by 48 hours (after removal at 24 h)) is reported as 36 cycles, the “HNF-3 beta RT-PCR detection cycle” value (0.5 μM, following the first treatment) is reported as 33 cycles and the “HNF-3 beta RT-PCR detection cycle” value (0.5 μM, following the second treatment) is reported as 37 cycles. The “Pdx-1 RT-PCR detection cycle” value (0.5 μM, for 24 hours following the addition) was 37 cycles, the Gata1 gene expression (24 hrs) was “nd (not detectable at >40 cycles by RT-PCR)” and the “HNF (HNF-3 beta) gene expression” value (24 hrs) was “+++ (detectable at less than 35 cycles by RT-PCR with SE less than 0.9)”. For the same compound, the Insulin gene expression (24 hrs) was “nd (not detectable at >40 cycles by RT-PCR)”, the Pdx-1 gene expression (24 hrs) was “+ (detectable between 35 and 40 cycles by RT-PCR)” and the sox17 gene expression (24 hrs) was “+++ (detectable at less than 35 cycles by RT-PCR with SE less than 0.9)”. The Gata1 gene expression (48 hrs) was “nd (not detectable at >40 cycles by RT-PCR)”, the “HNF (HNF-3 beta) gene expression” value (48 hrs) was “+++ (detectable at less than 35 cycles by RT-PCR with SE less than 0.9)” and the Insulin gene expression (48 hrs) was “+ (detectable between 35 and 40 cycles by RT-PCR)”. For the same compound, the Pdx-1 gene expression (48 hrs) was “nd (not detectable at >40 cycles by RT-PCR)”, the sox17 gene expression (48 hrs) was “+++ (detectable at less than 35 cycles by RT-PCR with SE less than 0.9)” and the Gata1 gene expression (72 hrs) was “nd (not detectable at >40 cycles by RT-PCR)”. For the same compound, the “HNF (HNF-3 beta) gene expression” value (72 hrs) was “+ (detectable between 35 and 40 cycles by RT-PCR)”, the Insulin gene expression (72 hrs) was “+ (detectable between 35 and 40 cycles by RT-PCR)” and the Pdx-1 gene expression (72 hrs) was “nd (not detectable at >40 cycles by RT-PCR)”. The sox17 gene expression (72 hrs) was “+++ (detectable at less than 35 cycles by RT-PCR with SE less than 0.9)”, the Gata1 gene expression (96 hrs) was “nd (not detectable at >40 cycles by RT-PCR)” and the “HNF (HNF-3 beta) gene expression” value (96 hrs) was “nd (not detectable at >40 cycles by RT-PCR)”. For the same compound, the Insulin gene expression (96 hrs) was “+ (detectable between 35 and 40 cycles by RT-PCR)”, the Pdx-1 gene expression (96 hrs) was “nd (not detectable at >40 cycles by RT-PCR)” and the sox17 gene expression (96 hrs) was “+++ (detectable at less than 35 cycles by RT-PCR with SE less than 0.9)”. The Gata1 gene expression (120 hrs) was “nd (not detectable at >40 cycles by RT-PCR)”, the “HNF (HNF-3 beta) gene expression” value (120 hrs) was “+ (detectable between 35 and 40 cycles by RT-PCR)” and the Insulin gene expression (120 hrs) was “+ (detectable between 35 and 40 cycles by RT-PCR)”. For the same compound, the Pdx-1 gene expression (120 hrs) was “nd (not detectable at >40 cycles by RT-PCR)”, the sox17 gene expression (120 hrs) was “+++ (detectable at less than 35 cycles by RT-PCR with SE less than 0.9)” and the Gata1 gene expression (144 hrs) was “nd (not detectable at >40 cycles by RT-PCR)”. For the same compound, the “HNF (HNF-3 beta) gene expression” value (144 hrs) was “+ (detectable between 35 and 40 cycles by RT-PCR)”, the Insulin gene expression (144 hrs) was “+ (detectable between 35 and 40 cycles by RT-PCR)” and the Pdx-1 gene expression (144 hrs) was “nd (not detectable at >40 cycles by RT-PCR)”. For the same compound, the sox17 gene expression (144 hrs) was “+++ (detectable at less than 35 cycles by RT-PCR with SE less than 0.9)”.

Source: patent US20080063628A1, “METHODS TO PROMOTE CELL DIFFERENTIATION” (priority 2006, published 2008)
